Experiment: Mouse retinal fatty acid composition after daily gavage of free DHA, sn-1 DHA LPC or sn-2 DHA LPC for 30 days (GC/MS)
Format: in vivo
Conditions: for fatty acid composition of mouse retina, 12:0, Mean ± S.D. / fatty acid composition of mouse retina, 14:0, Mean ± S.D. / fatty acid composition of mouse retina, 16:0, Mean ± S.D. / fatty acid composition of mouse retina, 16:0 DMA, Mean ± S.D. / fatty acid composition of mouse retina, 16:1 (n-7), Mean ± S.D. / fatty acid composition of mouse retina, 17:1 (n-7), Mean ± S.D. / fatty acid composition of mouse retina, 18:0, Mean ± S.D. / fatty acid composition of mouse retina, 18:0 DMA, Mean ± S.D. / fatty acid composition of mouse retina, 18:1(n-7), Mean ± S.D. / fatty acid composition of mouse retina, 18:1 (n-9), Mean ± S.D. / fatty acid composition of mouse retina, 18:1 DMA, Mean ± S.D. / fatty acid composition of mouse retina, 18:2 (n-6), Mean ± S.D. / fatty acid composition of mouse retina, 18:3 (n-3), Mean ± S.D. / fatty acid composition of mouse retina, 18:3 (n-6), Mean ± S.D. / fatty acid composition of mouse retina, 20:0, Mean ± S.D. / fatty acid composition of mouse retina, 20:1 (n-9), Mean ± S.D. / fatty acid composition of mouse retina, 20:2 (n-6), Mean ± S.D. / fatty acid composition of mouse retina, 20:3 (n-6), Mean ± S.D. / fatty acid composition of mouse retina, 20:4 (n-6), Mean ± S.D. / fatty acid composition of mouse retina, 20:5 (n-3), Mean ± S.D. / fatty acid composition of mouse retina, 22:0, Mean ± S.D. / fatty acid composition of mouse retina, 22:2 (n-6), Mean ± S.D. / fatty acid composition of mouse retina, 22:4 (n-6), Mean ± S.D. / fatty acid composition of mouse retina, 22:5 (n-3), Mean ± S.D. / fatty acid composition of mouse retina, 22:6 (n-3), Mean ± S.D. / fatty acid composition of mouse retina, 24:1 (n-9), Mean ± S.D.: 1 mg DHA daily by gavage
Procedure: Normal male mice (C57 BL/J6, 16-week-old) were gavaged daily with 1 mg DHA in the form of free DHA, sn-1 DHA LPC, or sn-2 DHA LPC in 80 μL corn oil for 30 days. Retinal FA composition was analyzed by GC/MS. Only the values for arachidonic acid and the omega-3 FA are shown here (mean±SD, 8 animals/group). […] SD: standard deviation; sn-1 and sn-2: stereospecific numbering 1 and 2 respectively; LPC: lysophosphatidylcholine; DHA: docosahexaenoic acid.
Animals and dietary treatments: All studies in animals described here were approved by the Institutional Animal Care and Use Committee of the University of Illinois at Chicago. The retina samples were obtained from our previous studies on the brain accretion of DHA in mice and rats, which were published previously. Male Sprague-Dawley rats (8-week-old) were purchased from Harlan laboratories (Indianapolis, IN, USA). Male C57 BL/J6 mice (2-4-months-old) were purchased from Jackson Laboratories (Bar Harbor. Maine).
In the first study, male Sprague-Dawley rats (n=5 per group, 8-week-old) were gavaged daily with 10 mg of DHA (40 mg DHA/kg body weight) in the form of TAG-DHA (DHASCO algal oil, DSM Nutritional Products, Columbia, MD, USA), synthetic di-DHA PC (phosphatidylcholine), or synthetic LPC-DHA (sn-1 acyl) for 30 days. The DHA was distributed equally among the three positions of TAG-DHA [17]. […] In the second study, 4-month-old male C57 BL/J6 mice (n=8 per group) were gavaged daily with 40 mg DHA/kg body weight in the form of free (unesterified) DHA, sn-1 acyl LPC-DHA, or sn-2 acyl LPC-DHA for 30 days as described previously. In the third study, male C57 BL/J6 mice (2-months-old, n=5 per group) were fed diets enriched with natural or lipase-treated fish oil or hill oil for 30 days. The total amount of omega-3 FA (eicosapentaenoic acid (EPA)+DHA) was 2.64 g/kg diet in all the diets. The untreated hill oil contained 18% of total omega-3 FA as LPC, whereas the lipase-treated hill oil contained >80% of the total omega-3 FA as LPC. The fish oil diets contained no LPC-EPA or LPC-DHA. The animals were trans-cardially perfused with ice cold phosphate buffered saline under anesthesia and the retinas were collected and kept frozen at −80° C. until the analysis.
Analytical procedures: The total lipids of retina were extracted by Bligh and Dyer procedure and the fatty acids were methylated using methanolic HCl. The fatty acid analysis was carried out by GC/MS (gas chromatography/mass spectroscopy) using Shimadzu QP2010SE equipped with Supelco Omegawax column, as described previously. Total ion current in the range of 50-400 m/z was used for quantification of the methyl esters. For LC/MS/MS (liquid chromatography/tandem mass spectroscopy) analysis, the lipids were extracted by the procedure of Ivanova et al.. The analysis of molecular species of phospholipids was performed on an ABSciex QTRAP mass spectrometer (Redwood City, CA, USA) coupled with Agilent 2600 UPLC system (Santa Clara, CA, USA), by multiple reaction monitoring. The internal standards 17:0 LPC, di 17:0 PC, and di 17:0 PE (phosphatidylethanolamine) were used for the quantification of the corresponding molecular species, without applying any correction factors for the differences in the ion intensity of different molecular species.
Statistics and correlations: The significance of differences between treatment groups was determined by a one-way ANOVA, with Tukey post-hoc multiple comparison corrections or unpaired t-test between control and treated samples adjusted with Holm-Sidak method (Graphpad Prism 8.0, San Diego, CA, USA).

| Structure (SMILES) | fatty acid composition of mouse retina, 12:0, Mean ± S.D. | fatty acid composition of mouse retina, 14:0, Mean ± S.D. | fatty acid composition of mouse retina, 16:0, Mean ± S.D. | fatty acid composition of mouse retina, 16:0 DMA, Mean ± S.D. | fatty acid composition of mouse retina, 16:1 (n-7), Mean ± S.D. | fatty acid composition of mouse retina, 17:1 (n-7), Mean ± S.D. | fatty acid composition of mouse retina, 18:0, Mean ± S.D. | fatty acid composition of mouse retina, 18:0 DMA, Mean ± S.D. | fatty acid composition of mouse retina, 18:1(n-7), Mean ± S.D. | fatty acid composition of mouse retina, 18:1 (n-9), Mean ± S.D. | fatty acid composition of mouse retina, 18:1 DMA, Mean ± S.D. | fatty acid composition of mouse retina, 18:2 (n-6), Mean ± S.D. | fatty acid composition of mouse retina, 18:3 (n-3), Mean ± S.D. | fatty acid composition of mouse retina, 18:3 (n-6), Mean ± S.D. | fatty acid composition of mouse retina, 20:0, Mean ± S.D. | fatty acid composition of mouse retina, 20:1 (n-9), Mean ± S.D. | fatty acid composition of mouse retina, 20:2 (n-6), Mean ± S.D. | fatty acid composition of mouse retina, 20:3 (n-6), Mean ± S.D. | fatty acid composition of mouse retina, 20:4 (n-6), Mean ± S.D. | fatty acid composition of mouse retina, 20:5 (n-3), Mean ± S.D. | also measured |
| --- | --- | --- | --- | --- | --- | --- | --- | --- | --- | --- | --- | --- | --- | --- | --- | --- | --- | --- | --- | --- | --- |
| CC/C=C\C/C=C\C/C=C\C/C=C\C/C=C\C/C=C\CCC(=O)O [Free DHA, docosahexaenoic acid] | 0.60 ± 0.35 | 0.20 ± 0.17 | 16.11 ± 1.56 | 0.75 ± 0.56 | 0.55 ± 0.28 | 0.43 ± 0.16 | 17.32 ± 0.66 | 2.10 ± 0.88 | 4.18 ± 0.34 | 17.14 ± 0.78 | 0.85 ± 0.56 | 0.99 ± 0.65 | 0.49 ± 0.15 | 0.49 ± 0.36 | 1.90 ± 0.64 | 3.42 ± 0.59 | 0.71 ± 0.50 | 1.30 ± 0.66 | 7.42 ± 0.72 | 2.03 ± 1.21 | fatty acid composition of mouse retina, 22:0, Mean ± S.D.: 1.08 ± 0.59; fatty acid composition of mouse retina, 22:2 (n-6), Mean ± S.D.: 0.77 ± 0.51; fatty acid composition of mouse retina, 22:4 (n-6), Mean ± S.D.: 2.51 ± 0.85; fatty acid composition of mouse retina, 22:5 (n-3), Mean ± S.D.: 0.42 ± 0.15; fatty acid composition of mouse retina, 22:6 (n-3), Mean ± S.D.: 15.74 ± 1.57; fatty acid composition of mouse retina, 24:1 (n-9), Mean ± S.D.: 0.51 ± 0.25; effect on retinal DHA (mice, 1 mg DHA daily): no effect |
| CC/C=C\C/C=C\C/C=C\C/C=C\C/C=C\C/C=C\CCC(=O)OC[C@@H](O)COP(=O)([O-])OCC[N+](C)(C)C [sn-1 DHA LPC] | 0.73 ± 0.47 | 0.30 ± 0.17 | 14.62 ± 1.22 | 1.02 ± 0.32 | 0.47 ± 0.34 | 0.48 ± 0.38 | 15.44 ± 1.50 | 1.96 ± 0.30 | 3.82 ± 0.62 | 15.56 ± 1.16 | 0.78 ± 0.64 | 1.38 ± 0.49 | 0.51 ± 0.42 | 0.60 ± 0.47 | 1.18 ± 0.72 | 2.87 ± 0.60 | 0.88 ± 0.95 | 1.44 ± 0.35 | 5.75 ± 0.71 | 1.91 ± 1.40 | fatty acid composition of mouse retina, 22:0, Mean ± S.D.: 1.24 ± 0.95; fatty acid composition of mouse retina, 22:2 (n-6), Mean ± S.D.: 1.00 ± 0.76; fatty acid composition of mouse retina, 22:4 (n-6), Mean ± S.D.: 2.23 ± 0.87; fatty acid composition of mouse retina, 22:5 (n-3), Mean ± S.D.: 0.79 ± 0.76; fatty acid composition of mouse retina, 22:6 (n-3), Mean ± S.D.: 22.57 ± 3.12; fatty acid composition of mouse retina, 24:1 (n-9), Mean ± S.D.: 0.49 ± 0.17 |

Source: patent publication US12427171B2, “Krill oil composition enriched in LPC-DHA and LPC-EPA” (Aker BioMarine Human Ingredients AS, priority 2020, dated 2025)
